# Reference: patent US7189849B2, “Synthesis of acyclic nucleoside derivatives” (Medivir AB, priority 1997, dated 2007)
# Key:
# [1] = Bioavailability testing in rats (24 h urinary H2G recovery); type: in vivo
# Description: The bioavailability of compounds of the invention were compared to the parent compound H2G and other H2G derivatives in a rat model. Compounds of the invention and comparative compounds were administered, per oral (by catheter into the stomach), to multiples of three individually weighed animals to give 0.1 mmol/kg of the dissolved prodrug in an aqueous (Example 4, 5, Comparative example 1–3, 5, 8), peanut oil (Comparative examples 4, 9, 10) or propylene glycol (Example 1–3, 6–12, 17, Comparative example 6, 7) vehicle dependent on the solubility of the test compound ingredient. The animals were fasted from 5 hours before to approximately 17 hours after administration and were maintained in metabolic cages. Urine was collected for the 24 hours following administration and frozen until analysis. H2G was analysed in the urine using the HPLC/UV assay of Stahle & Oberg, Antimicrob Agents Chemother. 36 No 2, 339–342 (1992), modified as follows: samples upon thawing are diluted 1:100 in aq dist H2O and filtered through an amicon filter with centrifugation at 3000 rpm for 10 minutes. Duplicate 30 μl samples are chromatographed on an HPLC column; Zorbax SB-C18; 75×4.6 mm; 3.5 micron; Mobile phase 0.05M NH4PO4, 3–4% methanol, pH 3.3–3.5; 0.5 ml/min; 254 nm, retention time for H2G at MeOH 4% and pH 3.33, ˜12.5 min. Bioavailability is calculated as the measured H2G recovery from each animal averaged over at least three animals and expressed as a percentage of the averaged 24 hour urinary H2G recovery from a group of 4 individually weighed rats respectively injected i.v. jugularis with 0.1 mmol/kg H2G in a Ringer's buffer vehicle and analysed as above.
# Comparative example 1 (H2G) was from the same batch as used for preparation of Examples 1 to 12. The preparation of Comparative example 2 (monoVal-H2G) and 3 (diVal-H2G) are shown in Examples 20 and 23. […] Comparative examples 5 & 8 (Val/Ac H2G) were prepared analogously to Example 4 using acetic anhydride with relevant monovaline H2G. Comparative example 6 (Ala/stearoyl H2G) was prepared analogously to Example 6 using N-t-Boc-L-alanine in step 4. Comparative example 7 (Gly/decanoyl) was prepared analogously to Example 5 but using the step a) intermediate made with N-t-Boc-L-glycine. The preparation of Comparative examples 9 and 10 is shown in Examples 24 and 25 respectively.
# [2] = Plasma concentration assay in rats (H2G AUC oral vs i.v.); type: in vivo, male Sprague Dawley derived rats; settings: Table 1B; plasma drug assay in rats, 10 mg/kg oral in propylene glycol, H2G AUC vs 10 mg/kg i.v. H2G
# Description: A plasma concentration assay was done in male Sprague Dawley derived rats. The animals were fasted overnight prior to dosing but were permitted free access to water. Each of the compounds evaluated was prepared as a solution/suspension in propylene glycol at a concentration corresponding to 10 mg H2G/ml and shaken at room temperature for eight hours. Groups of rats (at least 4 rats in each group) received a 10 mg/kg (1 ml/kg) oral dose of each of the compounds; the dose was administered by gavage. At selected time points after dosing (0.25, 0.5, 1, 1.5, 2, 4, 6, 9, 12, 15, and 24 hours after dosing), heparinized blood samples (0.4 ml/sample) were obtained from a tail vein of each animal. The blood samples were immediately chilled in an ice bath. Within two hours of collection, the plasma was separated from the red cells by centrifugation and frozen till analysis. The components of interest were separated from the plasma proteins using acetonitrile precipitation. Following lyophilisation, and reconstitution, the plasma concentrations were determined by reverse phase HPLC with fluorescence detection. The oral uptake of H2G and other test compounds was determined by comparison of the H2G area under the curve derived from the oral dose compared to that obtained from a 10 mg/kg intravenous dose of H2G, administered to a separate group of rats. The results are depicted in Table 1B above.
# [3] = tested on: Herpes simplex virus-1 (HSV-1); assay: Antiviral activity in HSV-1-infected mouse (survival); type: in vivo, mice; settings: 21 and 83 mg/kg three times daily p.o. for 5 days, relative to an equivalent dose of acyclovir
# Description: Herpes simplex virus-1 (HSV-1)-infected mouse serves as an animal model to determine the efficacy of antiviral agents in vivo. Mice inoculated intraperitoneally with HSV-1 at 1000 times the LD50 were administered either with a formulation comprising the currently marketed anti-herpes agent acyclovir (21 and 83 mg/kg in a 2% propylene glycol in sterile water vehicle, three times daily, p.o.) or the compound of Example 29 (21 and 83 mg/kg in a 2% propylene glycol in sterile water vehicle, three times daily, p.o.) for 5 consecutive days beginning 5 hours after inoculation. The animals were assessed daily for deaths. […] In the legend, the compound of the invention is denoted Ex.29 and acyclovir is denoted ACV.
# [4] = Table 2, rats, 0.1 mmol/kg per oral, 24 hour urinary H2G recovery as percentage of that after 0.1 mmol/kg H2G i.v.
SMILES,"Bioavailability [1, 4] [%]",Bioavailability [2] [%],"Bioavailability ([1]; Table 1A, urinary recovery assay of H2G from rats, oral, see Biological Example 1) [%]",percentage of mice surviving the HSV-1 infection (FIG. 2) [3]
CCCCCCCCCCCCCCCCCC(=O)OCC[C@@H](CO)Cn1cnc2c(=O)[nH]c(N)nc21 [Comparative Example 10],7,–,–,–
"Nc1nc2c(ncn2CC(CO)CCO)c(=O)[nH]1 (stereo not shown) [Comparative example 1, 9-[4-hydroxy-(2-hydroxymethyl)butyl]guanine, reference compound]",8,3.8,8,–
CCCCCCCCCCCCCCCCCC(=O)OC[C@H](CCOC(=O)[C@@H](N)[C@@H](C)CC)Cn1cnc2c(=O)[nH]c(N)nc21 [Example 7],53,–,–,–
CC(=O)CCCC(=O)OC[C@H](CCOC(=O)[C@@H](N)C(C)C)Cn1cnc2c(=O)[nH]c(N)nc21 [Example 10],52,–,–,–
"CCCCCCCCCCCCCCCCCC(=O)OC[C@H](CCOC(=O)[C@@H](N)C(C)C)Cn1cnc2c(=O)[nH]c(N)nc21.Cl [Example 29, (R)-9-[(2-stearoyloxymethyl)-4-(L-valyloxy)butyl]guanine monohydrochloride]",–,–,–,significantly greater
